Each block holds one compound with its values, some of them ahead of it. Activity calls are given as the source filed them. The rule behind the calls is not given here.
Key:
[1] = target: T1, Class 1 histone deacetylase (Homo sapiens, UniProt Q13547+O15379+Q92769+Q9BY41); assay: Inhibition of class 1 HDAC in human Cal27CisR cells assessed as potentiation of cisplatin-induced cytotoxicity by measuring fold reduction in cisplatin IC50 at 5 uM preincubated for 48 hrs followed by cisplatin addition and measured after 72 hrs by MTT assay relative to cisplatin IC50; assay type: cell-based
[2] = target: T1, Class 1 histone deacetylase; assay: Inhibition of class 1 HDAC in human CAL27 cells assessed as increase in histone H3 acetylation at 5 uM measured after 24 hrs by immunoblot analysis; assay type: cell-based; details: CAL-27
[3] = target: T1, Class 1 histone deacetylase; assay: (§1) Inhibition of class 1 HDAC in human Cal27CisR cells assessed as potentiation of cisplatin-induced apoptosis assessed as increase in caspase-3/7 activation at 5 uM preincubated for 48 hrs followed by cisplatin addition and measured after 24 hrs by CellEvent caspase 3/7 green detection reagent/Hoechst 33342 staining based imaging analysis; assay type: cell-based
[4] = target: T1, Class 1 histone deacetylase; assay: Inhibition of class 1 HDAC in human Cal27CisR cells assessed as potentiation of cisplatin-induced cytotoxicity by measuring combination index at 5 uM in presence of 1 uM cisplatin by MTT assay based Chou-Talalay analysis; assay type: cell-based
[5] = target: T1, Class 1 histone deacetylase; assay: Inhibition of class 1 HDAC in human CAL27 cells assessed as potentiation of cisplatin-induced cytotoxicity by measuring combination index at 5 uM in presence of 1 uM cisplatin by MTT assay based Chou-Talalay analysis; assay type: cell-based; details: CAL-27
[6] = target: T1, Class 1 histone deacetylase; assay: Inhibition of class 1 HDAC in human Cal27CisR cells assessed as potentiation of cisplatin-induced cytotoxicity by measuring combination index at 5 uM in presence of […] cisplatin by MTT assay based Chou-Talalay analysis; assay type: cell-based
[7] = target: T1, Class 1 histone deacetylase; details: CAL-27
Description: Inhibition of class 1 HDAC in human CAL27 cells assessed as potentiation of cisplatin-induced cytotoxicity by measuring combination index at 0.1 uM in presence of 10 uM cisplatin by MTT assay based Chou-Talalay analysis

[8] = target: T1, Class 1 histone deacetylase
[9] = target: T1, Class 1 histone deacetylase; assay type: cell-based
[10] = Induction of apoptosis in human Cal27CisR cells assessed as caspase-3/7 activation at 0.5 uM measured after 48 hrs by CellEvent caspase 3/7 green detection reagent/Hoechst 33342 staining based imaging analysis relative to control; assay type: functional
[11] = target: T1, Class 1 histone deacetylase; details: CAL-27; remark: listed apart in the source
Description: Inhibition of class 1 HDAC in human CAL27 cells assessed as potentiation of cisplatin-induced cytotoxicity by measuring combination index at 0.25 uM in presence of 10 uM cisplatin by MTT assay based Chou-Talalay analysis

[12] = Induction of apoptosis in human Cal27CisR cells assessed as accumulation at sub-G1 phase at 0.5 uM after 48 hrs by propidium iodide staining based flow cytometry relative to control; assay type: functional
[13] = target: T1, Class 1 histone deacetylase; details: CAL-27; remark: listed apart in the source
Description: Inhibition of class 1 HDAC in human CAL27 cells assessed as potentiation of cisplatin-induced cytotoxicity by measuring combination index at 0.1 uM in presence of 0.1 uM cisplatin by MTT assay based Chou-Talalay analysis

[14] = target: T1, Class 1 histone deacetylase; assay: as §1, with “CAL27” for “Cal27CisR”, “5 uM” left out; assay type: cell-based; details: CAL-27
[15] = target: T1, Class 1 histone deacetylase; assay: Inhibition of class 1 HDAC in human CAL27 cells assessed as potentiation of cisplatin-induced apoptosis by measuring increase in accumulation at sub-G1 phase at […] preincubated for 48 hrs followed by cisplatin addition and measured after 24 hrs by propidium iodide staining based flow cytometry; assay type: cell-based; details: CAL-27
[16] = target: T1, Class 1 histone deacetylase; assay: as §1, with “activation at […] preincubated for” for “activation at 5 uM preincubated for”, “24 hrs in presence of pan caspase inhibitor QVD by CellEvent” for “24 hrs by CellEvent”; assay type: cell-based
A2780 = assay: Cytotoxicity against human A2780 cells assessed as reduction in cell survival up to 100 uM measured after 72 hrs by MTT assay; assay type: functional, cell-based
[17] = target: T2, Protein deacetylase HDAC6 (Homo sapiens) (UniProt Q9UBN7); assay: Inhibition of HDAC6 in human CAL27 cells assessed as acetylation of alpha-tubulin at […] measured after 24 hrs by immunoblot analysis; assay type: cell-based
T2 sequence (whole entry): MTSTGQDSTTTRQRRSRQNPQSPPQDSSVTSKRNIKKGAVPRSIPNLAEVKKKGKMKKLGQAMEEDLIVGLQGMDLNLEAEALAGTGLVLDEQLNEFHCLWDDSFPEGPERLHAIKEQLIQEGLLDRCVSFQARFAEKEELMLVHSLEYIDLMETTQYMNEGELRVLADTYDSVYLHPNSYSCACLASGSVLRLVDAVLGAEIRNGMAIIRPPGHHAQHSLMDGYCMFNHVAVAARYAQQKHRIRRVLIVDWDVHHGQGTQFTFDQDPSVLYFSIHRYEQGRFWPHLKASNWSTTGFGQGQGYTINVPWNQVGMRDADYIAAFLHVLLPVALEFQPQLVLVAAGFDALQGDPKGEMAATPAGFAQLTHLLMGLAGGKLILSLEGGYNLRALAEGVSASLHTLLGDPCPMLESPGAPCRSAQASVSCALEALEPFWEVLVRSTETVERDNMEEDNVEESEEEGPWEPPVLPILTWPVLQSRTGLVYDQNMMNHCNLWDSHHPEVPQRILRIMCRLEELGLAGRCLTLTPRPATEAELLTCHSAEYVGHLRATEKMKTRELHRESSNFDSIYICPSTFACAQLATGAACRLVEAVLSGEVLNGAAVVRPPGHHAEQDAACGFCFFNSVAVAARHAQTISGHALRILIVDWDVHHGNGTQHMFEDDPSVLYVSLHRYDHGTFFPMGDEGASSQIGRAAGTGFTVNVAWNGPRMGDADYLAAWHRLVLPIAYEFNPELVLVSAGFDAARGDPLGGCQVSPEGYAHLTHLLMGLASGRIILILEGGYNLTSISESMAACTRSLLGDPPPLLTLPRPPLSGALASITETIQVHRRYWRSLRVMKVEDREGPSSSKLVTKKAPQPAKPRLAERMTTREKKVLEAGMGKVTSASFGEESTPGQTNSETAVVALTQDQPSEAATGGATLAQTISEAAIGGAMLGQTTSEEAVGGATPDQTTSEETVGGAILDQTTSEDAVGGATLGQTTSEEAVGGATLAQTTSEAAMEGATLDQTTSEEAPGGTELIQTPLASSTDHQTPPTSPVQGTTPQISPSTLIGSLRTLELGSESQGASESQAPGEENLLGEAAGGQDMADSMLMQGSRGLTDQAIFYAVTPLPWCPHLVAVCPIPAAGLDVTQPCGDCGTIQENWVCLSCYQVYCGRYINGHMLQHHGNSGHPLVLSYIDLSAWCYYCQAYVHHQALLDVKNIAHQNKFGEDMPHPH

[18] = target: T1, Class 1 histone deacetylase; assay: Inhibition of class 1 HDAC in human CAL27 cells assessed as potentiation of cisplatin-induced apoptosis assessed as increase in caspase-3/7 activation at […] preincubated for 48 hrs followed by cisplatin addition and measured after 24 hrs in presence of pan caspase inhibitor QVD by CellEvent caspase 3/7 green detection reagent/Hoechst 33342 staining based imaging analysis; assay type: cell-based; details: CAL-27
[19] = target: T1, Class 1 histone deacetylase; assay: Inhibition of class 1 HDAC in human Cal27CisR cells assessed as potentiation of cisplatin-induced cytotoxicity by measuring fold reduction in cisplatin IC50 at […] preincubated for 48 hrs followed by cisplatin addition and measured after 72 hrs by MTT assay relative to cisplatin IC50; assay type: cell-based

T1 sequence (O15379 whole entry, looked up): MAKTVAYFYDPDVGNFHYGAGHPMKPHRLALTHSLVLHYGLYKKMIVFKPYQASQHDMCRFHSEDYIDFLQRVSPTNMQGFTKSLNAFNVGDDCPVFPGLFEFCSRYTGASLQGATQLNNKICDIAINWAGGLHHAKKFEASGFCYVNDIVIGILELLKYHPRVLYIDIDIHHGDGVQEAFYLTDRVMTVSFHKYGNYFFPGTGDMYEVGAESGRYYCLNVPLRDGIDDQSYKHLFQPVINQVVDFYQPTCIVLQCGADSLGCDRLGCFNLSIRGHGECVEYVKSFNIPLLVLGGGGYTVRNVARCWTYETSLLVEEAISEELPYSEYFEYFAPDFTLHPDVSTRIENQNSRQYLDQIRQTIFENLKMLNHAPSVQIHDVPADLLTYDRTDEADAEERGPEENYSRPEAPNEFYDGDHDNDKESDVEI
T1 sequence (Q13547 whole entry, looked up): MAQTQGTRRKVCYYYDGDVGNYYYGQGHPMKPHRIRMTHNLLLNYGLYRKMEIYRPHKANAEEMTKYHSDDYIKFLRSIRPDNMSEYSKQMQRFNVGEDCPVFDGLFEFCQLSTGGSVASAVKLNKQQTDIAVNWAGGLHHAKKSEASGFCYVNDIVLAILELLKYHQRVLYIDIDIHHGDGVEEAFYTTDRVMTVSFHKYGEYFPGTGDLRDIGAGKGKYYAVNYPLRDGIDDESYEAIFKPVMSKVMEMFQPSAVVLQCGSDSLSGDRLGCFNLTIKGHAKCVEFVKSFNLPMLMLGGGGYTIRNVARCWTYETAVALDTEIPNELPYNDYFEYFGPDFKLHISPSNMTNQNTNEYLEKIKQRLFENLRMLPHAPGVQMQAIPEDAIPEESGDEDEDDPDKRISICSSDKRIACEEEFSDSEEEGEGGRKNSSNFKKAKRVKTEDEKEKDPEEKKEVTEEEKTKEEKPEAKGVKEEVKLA
T1 sequence (Q92769 whole entry, looked up): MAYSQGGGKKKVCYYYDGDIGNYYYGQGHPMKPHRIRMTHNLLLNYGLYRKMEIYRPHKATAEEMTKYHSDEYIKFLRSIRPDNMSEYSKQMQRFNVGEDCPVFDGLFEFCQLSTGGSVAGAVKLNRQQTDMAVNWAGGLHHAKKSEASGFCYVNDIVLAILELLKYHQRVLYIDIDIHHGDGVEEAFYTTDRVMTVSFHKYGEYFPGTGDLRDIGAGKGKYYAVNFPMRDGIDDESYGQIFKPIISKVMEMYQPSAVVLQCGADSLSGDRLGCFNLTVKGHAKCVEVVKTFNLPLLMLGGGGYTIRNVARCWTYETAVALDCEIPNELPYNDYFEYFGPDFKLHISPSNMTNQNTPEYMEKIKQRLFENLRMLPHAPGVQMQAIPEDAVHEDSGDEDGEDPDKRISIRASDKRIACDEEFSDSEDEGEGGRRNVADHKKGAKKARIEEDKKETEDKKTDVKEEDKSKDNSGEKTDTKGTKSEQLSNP
T1 sequence (Q9BY41 whole entry, looked up): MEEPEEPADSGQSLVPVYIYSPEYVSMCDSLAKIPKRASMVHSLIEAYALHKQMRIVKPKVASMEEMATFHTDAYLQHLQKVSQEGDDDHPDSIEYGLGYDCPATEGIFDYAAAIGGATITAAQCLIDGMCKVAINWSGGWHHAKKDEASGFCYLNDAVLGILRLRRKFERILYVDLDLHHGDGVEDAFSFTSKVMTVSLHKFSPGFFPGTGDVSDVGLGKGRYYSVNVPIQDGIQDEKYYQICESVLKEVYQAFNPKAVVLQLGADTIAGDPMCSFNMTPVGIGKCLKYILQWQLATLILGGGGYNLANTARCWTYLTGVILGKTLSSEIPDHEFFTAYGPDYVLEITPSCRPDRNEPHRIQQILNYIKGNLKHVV

inhibition [2]: Active
inhibition [3]: Active
SMILES: Cc1cc(C)cc(C(=O)N(CCCCCC(=O)Nc2cc(-c3ccccc3)ccc2N)CC(=O)NCc2ccccc2)c1
Ratio IC50 [1]: 4.03
CI [4]: < 0.2
CI [5]: 0.76
CI [6]: < 0.2

CI [7]: 0.33
CI [8]: 0.04
IC50 [9]: 8.42 µM
CI [11]: 0.02
CI [13]: < 0.2
SMILES: CN(C)c1ccc(C(=O)N(CC(=O)NCc2ccccc2)Cc2ccc(C(=O)Nc3ccccc3N)cc2)cc1
Activity [10]: 8.16%
Activity [12]: 6.15%

SMILES: Cc1cc(C)cc(C(=O)N(CC(=O)NCc2ccccc2)Cc2ccc(C(=O)Nc3cc(-c4ccccc4)ccc3N)cc2)c1
inhibition [14]: Active
inhibition [15]: Active
inhibition [16]: inactive
Activity (A2780): inactive
inhibition [17]: inactive
inhibition [18]: inactive
Ratio IC50 [19]: 5.27

From ChEMBL document CHEMBL4334526, “Synthesis of Peptoid-Based Class I-Selective Histone Deacetylase Inhibitors with Chemosensitizing Properties” (J Med Chem, 2019)
